The results in this text go back to patent publication EP0452935B1, “Chiral 2-(phosphonomethoxy)propyl guanines as antiviral agents” (INSTITUTE OF ORGANIC CHEMISTRY AND BIOCHEMISTRY OF THE …, priority 1990, dated 1991).

≈ marks a conversion by molar mass, not a printed value.

What all share (format): cell-based
The subject of data set [1] is human immunodeficiency virus (LAVBRU strain). In words: anti-HIV XTT assay in infected CEM-SS cells. The note with it: for anti-HIV activity (in words): XTT assay (FIGS. 4, 6, 7); for EC50: infected CEM-SS cells, XTT assay, day 7 post-infection, viable cells increased to 50% of uninfected control, NA = Not active at concentrations up to 500 µM, read-out: ED50 (the source's name); for SI: Selectivity Index: Ratio of TD50 to ED50, CEM-SS cells, 10080 min. Here is the method:
(§1) Compounds were evaluated for activity against human immunodeficiency virus (LAVBRU strain obtained from Luc Montagnier, Institut Pasteur, Paris, France) in CEM-SS cells (P. L. Nara et al., in AIDS Res. Human. Retroviruses, 1987, 3, 283-302) or in MT-4 cells (S. Harada, et al., in Science, 1985, 229, 563-566) using the XTT assay described by O. S. Weislow et al., in J. Natl. Cancer Instit., 1989, 81, 577-586. CEM-SS cells were obtained from Owen Weislow at the National Cancer Institute, and MT-4 cells were obtained from Doug Richman at the University of California at San Diego. Cells were exposed to HIV and cultured in microtiter plates in the presence of test compounds at concentrations of 0.0013, 0.0064, 0.032, 0.16, 0.8, 4, 20, 100, and 500 »M. On day 7 post-infection, the antiviral effect was measured using the XTT assay in which an optical density (OD) reading is obtained at each drug concentration. The optical density reading is proportional to the number of viable cells. Assays run in infected cells show the antiviral effect of the test compounds, where an increase in the number of viable cells (higher OD reading) reflects the protective, antiviral activity of the compound. Assays run in uninfected cells provide a measure of cellular toxicity. The antiviral effect is also expressed (see Table 2) as the concentration of compound which increases the number of viable cells in infected cultures to 50%, that of the untreated, uninfected control cultures (ED₅₀). The cellular toxicity is expressed as the concentration of compound which reduces the number of viable cells to 50%, that of the untreated control (TD₅₀). The selectivity index (SI) is the ratio of TD₅₀ to ED₅₀. The anti-HIV activity and cellular toxicity of the test compounds are plotted in FIGS. 1-7 as a function of optical density verus increasing log concentrations of the test compounds (XTT assay).

The subject of data set [2] is herpes simplex virus Type 1 (HSV-1). In words: plaque reduction assay, HSV-1 in vero cells. The note with it: Human alphaherpesvirus 1, BW^s strain, 48 hour incubation. Here is the method: (§2) The compounds were evaluated for antiviral activity in vitro by the standard plaque reduction assay. Experiments were conducted with vero cells (African Green Monkey Kidney cells) infected with herpes simplex virus Type 1 (HSV-1) [BW^s strain, C. D. Sibrack et al., Infect. Dis., 1982, 146, 673] and herpes simplex virus Type 2 (HSV-2) [G strain, obtained from American Tissue Culture Collection, Rockville, MD] and with MRC-5 cells (human embryonic lung (diploid) cells) infected with human cytomegalovirus (HCMV) [AD169 strain, obtained from American Tissue Culture Collection, Rockville, MD]. Briefly, confluent cell monolayers in 24-well plates were infected with 30-50 plaque-forming units of virus in 100 »l of phosphate-buffered saline. After a 1 hour adsorption period, residual inoculum was replaced with 1 mL of the appropriate dilution of the test compound which had been freshly prepared in Eagle's minimal essential medium (EMEM) containing 10% fetal bovine serum. After a 48 hour incubation period at 37°C in a 5% CO₂ atmosphere, cell monolayers were fixed and stained with Carbol fuchsin and plaques were counted. The antiviral potency of the compound was determined by IC₅₀, the inhibitory concentration necessary to reduce the number of plaques by 50% of those in the virus control cultures.

Data set [3] deals with human immunodeficiency virus (LAVBRU strain). The data set is described as follows: anti-HIV XTT assay in infected MT-4 cells. The note with it: MT4 cells, XTT assay (FIG. 2). Here is the method:
as §1, with “The antiviral effect is also expressed (see Table 2) as the concentration of compound which increases the number of viable cells in infected cultures to 50%, that of the untreated, uninfected control cultures (ED₅₀). The cellular toxicity is expressed as the concentration of compound which reduces the number of viable cells to 50%, that of the untreated control (TD₅₀). The selectivity index (SI) is the ratio of TD₅₀ to ED₅₀. The anti-HIV activity and cellular toxicity of the test compounds are plotted in FIGS. 1-7 as a function of optical density verus increasing log concentrations of the test compounds (XTT assay).” left out
(Tetrazolium dyes change colour on reduction, which living cells bring about.)

The next data set relates to CEM-SS cells. The data set is described as follows: in vitro. As to the method: as §1
Data set [4] concerns herpes simplex virus Type 2 (HSV-2). In words: plaque reduction assay, HSV-2 in vero cells. The following applies: Human alphaherpesvirus 2, G strain, 48 hour incubation. As to the method: as §2
(Plaque reduction counts the foci of infection that form in a cell layer.)

The test system of data set [5] is human cytomegalovirus (HCMV). The data set is described as follows: plaque reduction assay, HCMV in MRC-5 cells. The following applies: Human betaherpesvirus 5, MRC5, AD169 strain. As to the method: as §2
Data set [6] can be described thus: in vitro. The following applies: human, mt-4 cells. Here is the method:
as §1, with “The antiviral effect is also expressed (see Table 2) as the concentration of compound which increases the number of viable cells in infected cultures to 50%, that of the untreated, uninfected control cultures (ED₅₀). The cellular toxicity is expressed as the concentration of compound which reduces the number of viable cells to 50%, that of the untreated control (TD₅₀). The selectivity index (SI) is the ratio of TD₅₀ to ED₅₀. The anti-HIV activity and cellular toxicity of the test compounds are plotted in FIGS. 1-7 as a function of optical density verus increasing log concentrations of the test compounds (XTT assay).” left out

Data set [7] is described as follows: in vitro. The note with it: human, cem-ss cells. As to the method: as §1
Where [8] appears, read: Human immunodeficiency virus 1, 168 h.

As to `Nc1nc2c(ncn2CCOCP(=O)(O)O)c(=O)[nH]1` [PMEG, 9-[2-(phosphonomethoxy)ethyl]guanine], the “anti-HIV activity (in words)” value in data set [1] (CEM-SS cells) is on record as “some anti-HIV effect”. In data set [1] (setting [8]), the EC50 amounted to 0.2 µM. Besides, the SI in data set [1] is listed as 30. The figures for the IC50 in data set [2], in data set [4] and in data set [5] were 0.09 µg/mL (≈ 0.311 µM), 0.31 µg/mL (≈ 1.07 µM) and below 0.1 µg/mL, respectively. Besides, the “anti-HIV effect (in words)” value in data set [3] is reported as “no anti-HIV effect can be measured”. Moreover, in the data set on CEM-SS cells, the “cytotoxicity relative to (R)-2'-methyl-PMEG” value is listed as “approximately 30 fold”. Further, in the data set on CEM-SS cells (human, cem-ss cells), the CC50 amounted to 15 µM. Also, the MCC at 168 h in “in vitro [6]” was above 100 nM.
On to `C[C@H](Cn1cnc2c(=O)[nH]c(N)nc21)OCP(=O)(O)O` [(R)-2'-methyl-PMEG, (R)-9-[2-(phosphonomethoxy)propyl]guanine], for which, in data set [1] (CEM-SS cells), the “anti-HIV activity (in words)” value is on record as “active”. Besides, in data set [1] (setting [8]), the EC50 came out at 1 µM. In the data set “in vitro [7]”, the CC50 is above 500 µM. The MNTC in “in vitro [7]” is below 100 µM. Further, the IC50 in data set [4] came to 25 µg/mL (≈ 82.4 µM); in data set [5], 5 µg/mL (≈ 16.5 µM). Besides, in “in vitro [6]”, the MNTC at 168 h is below 100 µM.
Take `Nc1nc2c(ncn2C[C@H](CO)OCP(=O)(O)O)c(=O)[nH]1` [(R)-HPMPG, (R)-9-[3-hydroxy-2-(phosphonomethoxy)propyl]guanine]: the “anti-HIV activity (in words)” value in data set [1] (CEM-SS cells) is “clearly inactive”. For the same compound, the EC50 in data set [1] (setting [8]) was 500 µM. Also, the SI in data set [1] is given as above 1. For the same compound, the IC50 in data set [2] worked out at 32 µg/mL (≈ 100 µM); in data set [4], 32 µg/mL (≈ 100 µM); in data set [5], 0.5 µg/mL (≈ 1.57 µM). Besides, the CC50 in the data set “in vitro [7]” is above 500 µM.
With `Nc1nc2c(ncn2C[C@@H](CO)OCP(=O)(O)O)c(=O)[nH]1` [(S)-HPMPG, (S)-9-[3-hydroxy-2-(phosphonomethoxy)propyl]guanine], the “anti-HIV activity (in words)” value in data set [1] (CEM-SS cells) is “clearly inactive”. The results for the IC50 in data set [2], in data set [4] and in data set [5] were 8 µg/mL (≈ 25.1 µM), 31 µg/mL (≈ 97.1 µM) and 0.9 µg/mL (≈ 2.82 µM), respectively. This compound had a 50% cytotoxic concentration (CC50) in the data set “in vitro [7]” of 350 µM.
As for `C[C@@H](Cn1cnc2c(=O)[nH]c(N)nc21)OCP(=O)(O)O` [(S)-2'-methyl-PMEG, (S)-9-[2-(phosphonomethoxy)propyl]guanine], the “anti-HIV activity (in words)” value in data set [1] (CEM-SS cells) is given as “active”. The EC100 in data set [1] (Human immunodeficiency virus 1, 168 h, CEM-SS cells, XTT assay (FIGS. 3, 5), read-out: concentration giving complete protection from HIV) was 100 µM. Besides, the EC50 in data set [1] (setting [8]) was 12 µM. In data set [1], the SI amounted to 25. The compound also showed a CC50 in the data set “in vitro [7]” of 300 µM. The same compound registered an MNTC in the data set “in vitro [7]” below 100 µM. The values for the IC50 in data set [4] and in data set [5] were 25 µg/mL (≈ 82.4 µM) and 5 µg/mL (≈ 16.5 µM), respectively.

As a reminder, the IC50 is the concentration at which inhibition is half-maximal. As usually defined, the CC50 is the concentration at which the toxic effect on the cells reaches its halfway point. High values mean better tolerance by the cells, low ones harm at low concentration.
